Source: ChEMBL document CHEMBL1201862, “PubChem BioAssay data set” (2004)
Activity calls are given as the source filed them.

Assays:
[1] = inhibitors of Vif binding to APOBEC3G peptide, primary screen, biochemical, TR-FRET, GST-Vif 1-94, biotin-A3G peptide, dose response retest (AID 1117319); type: functional;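 note: TR-FRET signal of purified GST-Vif binding a biotinylated A3G peptide; inhibitors lower the FRET signal by blocking Vif and A3G binding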
[2] = control 3'UTR Renilla luciferase suppression, dose response, counter-screen for Shn3 inhibitor project, cell-based, Clone20-Shn3RL, cherry-picked (AID 624133); type: functional
CHO = assay: cytotoxicity in TLR9-MyD88 CHO cells, dose response, cytotoxicity control for TLR9-MyD88 binding inhibitor project, cell-based, luminescence (AID 588339); type: functional, hamster; details: Cricetulus griseus;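 note: CHO cells stably coexpressing TLR9 and MyD88 fusions from primary screen; compound exposure lasted 48 hours before viability readout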
[3] = HepG2 cell cytotoxicity, dose response, cytotoxicity control for Shn3 inhibitor project, CellTiter-Glo, cherry-picked (AID 624134); type: functional, cell-based
Beta Lactamase = Beta Lactamase (Pseudomonas aeruginosa, UniProt Q932Y6); assay: beta-lactamase reporter inhibitor potency, dose response, artefact control for TLR9-MyD88 binding inhibitor project, BLA reporter cells, FRET fluorescence (AID 588341); type: cell-based;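 note: cell based assay in CHO-K1 cells stably expressing beta-lactamase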
[4] = molecular target: T1, Rac GTPase-activating protein 1 (Homo sapiens, UniProt Q9H0H5); assay: MgcRacGAP GTPase-activating activity inhibitors, confirmation, biochemical, ADP Hunter fluorescence, primary and confirmatory (AID 624330); type: functional
T1 sequence (Q9H0H5 whole entry): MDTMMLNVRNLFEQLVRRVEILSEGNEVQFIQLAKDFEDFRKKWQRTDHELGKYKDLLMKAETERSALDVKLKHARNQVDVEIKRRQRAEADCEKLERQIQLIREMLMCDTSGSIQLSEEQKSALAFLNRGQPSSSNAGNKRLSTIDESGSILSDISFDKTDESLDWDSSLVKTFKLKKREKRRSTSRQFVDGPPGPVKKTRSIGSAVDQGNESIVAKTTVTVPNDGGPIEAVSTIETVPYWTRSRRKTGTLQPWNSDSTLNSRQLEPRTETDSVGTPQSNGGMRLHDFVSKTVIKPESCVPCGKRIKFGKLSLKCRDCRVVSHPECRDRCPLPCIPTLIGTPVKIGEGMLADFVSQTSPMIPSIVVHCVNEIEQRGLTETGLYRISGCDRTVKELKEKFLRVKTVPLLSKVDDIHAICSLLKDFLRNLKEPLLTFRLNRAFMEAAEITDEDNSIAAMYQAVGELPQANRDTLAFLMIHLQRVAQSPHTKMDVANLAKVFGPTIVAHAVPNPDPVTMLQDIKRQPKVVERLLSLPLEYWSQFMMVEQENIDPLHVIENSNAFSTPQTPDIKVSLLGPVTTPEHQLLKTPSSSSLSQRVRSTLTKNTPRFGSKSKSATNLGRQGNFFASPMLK

[5] = Shn3 3'UTR reporter inhibitors, dose response, cell-based, Clone20 osteoblasts, firefly luciferase, cherry-picked (AID 624132); type: functional;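 note: firefly luciferase luminescence from reporter carrying the Shn3 3'UTR in osteoblasts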
[6] = molecular target: Glucose-6-phosphate 1-dehydrogenase (Homo sapiens, UniProt P11413); assay: human G6PD enzyme inhibitors, dose response, selectivity assay for P. falciparum G6PD inhibitor project, biochemical, fluorescence (AID 504792); type: functional
cells [7] = type: functional, cell-based; details: INS-1E
[8] = HeLa 4N DNA content increase, dose response, cell-based, IC50 (AID 1117351); type: functional
[9] = HeLa 2N DNA content increase, dose response, cell-based, IC50 (AID 1117349); type: functional
[10] = Dose-response inhibition of insulin secretion in a rat insulinoma line at 5 mM glucose (AID 1117331); type: functional, cell-based; details: INS-1E
[11] = molecular target: Eukaryotic translation initiation factor 4E (Mus musculus, UniProt P63073); assay: eIF4E–eIF4G protein interaction inhibitors, dose response, biochemical, TR-FRET (AID 855); type: functional;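 note: potency for disrupting eIF4E binding to eIF4GI seen as loss of FRET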
[12] = inhibitors of PGC1a acetylation in cells, dose response, cell-based, cherry-picked samples (AID 720514); type: functional;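 note: potency may reflect raised or lowered acetylation signal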
[13] = C. albicans growth with fluconazole, confirmation, fluorescence, retest (AID 2467); type: functional, cell-based
[14] = NIH-3T3 fibroblast cytotoxicity, dose response, cytotoxicity control, cell-based, fluorescence, Alamar Blue, secondary assay (AID 2327); type: functional;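 note: NIH-3T3 mouse fibroblasts cultured with fluconazole at 8 µg/mL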
Cytochrome P450 2C9 = Cytochrome P450 2C9 (Homo sapiens, UniProt P11712)
Ephrin type-A receptor 4 = Ephrin type-A receptor 4 (Mus musculus, UniProt Q03137); assay: inhibitors of EphA4 binding to KYL peptide, primary screen, biochemical, colorimetric, mouse EphA4 (AID 689); type: functional
[15] = THP-1 cell cytotoxicity, dose response, cytotoxicity control for non-replicating M. tuberculosis project (AID 489025); type: functional
cells [16] = type: functional
Cytochrome P450 2D6 = Cytochrome P450 2D6 (Homo sapiens, UniProt P10635);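 note: CYP2D6 member of a cytochrome P450 panel assay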
[17] = microbe, parasite or virus in culture; type: functional; details: Mycobacterium tuberculosis
CAAX prenyl protease 2 = molecular target: T2, CAAX prenyl protease 2 (Saccharomyces cerevisiae S288c, UniProt Q03530); type: biochemical
T2 sequence (Q03530 whole entry): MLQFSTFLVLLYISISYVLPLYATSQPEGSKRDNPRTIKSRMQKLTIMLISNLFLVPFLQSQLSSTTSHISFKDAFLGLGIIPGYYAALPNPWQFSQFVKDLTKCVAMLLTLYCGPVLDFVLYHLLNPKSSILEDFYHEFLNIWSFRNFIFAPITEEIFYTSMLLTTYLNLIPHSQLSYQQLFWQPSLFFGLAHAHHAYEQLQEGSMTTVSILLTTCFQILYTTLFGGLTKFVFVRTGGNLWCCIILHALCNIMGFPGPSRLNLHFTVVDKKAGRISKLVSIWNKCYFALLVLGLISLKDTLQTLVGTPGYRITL

[18] = THP-1 cell cytotoxicity, dose response, cytotoxicity control for Vif-APOBEC3G degradation inhibitor project, THP-1 cells (AID 1117359); type: functional; details: Human immunodeficiency virus 1, THP-1
[19] = molecular target: Sphingosine 1-phosphate receptor 2 (Homo sapiens, UniProt O95136); assay: Dose Response Cell Based Assay for Agonists of the S1P2 Receptor. [Related pubchem assays: 729, 736, 843 ]; type: functional
Sphingosine 1-phosphate receptor 2, sequence (O95136 whole entry): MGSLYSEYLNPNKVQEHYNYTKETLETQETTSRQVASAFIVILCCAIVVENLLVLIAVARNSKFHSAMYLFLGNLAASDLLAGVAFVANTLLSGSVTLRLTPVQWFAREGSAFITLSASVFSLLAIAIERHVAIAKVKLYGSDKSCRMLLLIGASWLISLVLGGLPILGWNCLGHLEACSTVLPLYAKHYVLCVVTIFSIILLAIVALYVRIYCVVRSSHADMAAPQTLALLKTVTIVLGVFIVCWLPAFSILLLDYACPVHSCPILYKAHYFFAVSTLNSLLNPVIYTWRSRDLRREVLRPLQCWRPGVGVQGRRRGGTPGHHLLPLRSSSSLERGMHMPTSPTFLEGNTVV

Cytochrome P450 2D6, sequence (P10635 whole entry): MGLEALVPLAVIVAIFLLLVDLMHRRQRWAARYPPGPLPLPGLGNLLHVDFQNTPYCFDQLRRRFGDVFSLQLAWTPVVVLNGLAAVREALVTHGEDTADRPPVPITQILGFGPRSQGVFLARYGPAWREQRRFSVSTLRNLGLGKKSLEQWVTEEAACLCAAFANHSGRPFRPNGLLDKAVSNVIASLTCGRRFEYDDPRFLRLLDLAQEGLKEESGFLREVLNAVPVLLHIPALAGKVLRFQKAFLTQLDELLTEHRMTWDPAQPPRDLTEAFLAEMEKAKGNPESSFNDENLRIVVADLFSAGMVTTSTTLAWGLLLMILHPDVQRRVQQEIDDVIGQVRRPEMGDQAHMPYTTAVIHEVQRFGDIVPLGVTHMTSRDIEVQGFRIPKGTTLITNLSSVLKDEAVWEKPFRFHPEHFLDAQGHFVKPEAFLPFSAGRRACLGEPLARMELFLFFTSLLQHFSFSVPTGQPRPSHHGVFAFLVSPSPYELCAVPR
Eukaryotic translation initiation factor 4E, sequence (P63073 whole entry): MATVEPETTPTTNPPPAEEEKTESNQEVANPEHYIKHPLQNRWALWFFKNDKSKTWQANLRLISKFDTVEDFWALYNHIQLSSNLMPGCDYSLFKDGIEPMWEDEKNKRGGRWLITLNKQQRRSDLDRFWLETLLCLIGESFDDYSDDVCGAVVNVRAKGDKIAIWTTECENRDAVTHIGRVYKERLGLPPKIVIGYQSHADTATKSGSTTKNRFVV
Cytochrome P450 2C9, sequence (P11712 whole entry): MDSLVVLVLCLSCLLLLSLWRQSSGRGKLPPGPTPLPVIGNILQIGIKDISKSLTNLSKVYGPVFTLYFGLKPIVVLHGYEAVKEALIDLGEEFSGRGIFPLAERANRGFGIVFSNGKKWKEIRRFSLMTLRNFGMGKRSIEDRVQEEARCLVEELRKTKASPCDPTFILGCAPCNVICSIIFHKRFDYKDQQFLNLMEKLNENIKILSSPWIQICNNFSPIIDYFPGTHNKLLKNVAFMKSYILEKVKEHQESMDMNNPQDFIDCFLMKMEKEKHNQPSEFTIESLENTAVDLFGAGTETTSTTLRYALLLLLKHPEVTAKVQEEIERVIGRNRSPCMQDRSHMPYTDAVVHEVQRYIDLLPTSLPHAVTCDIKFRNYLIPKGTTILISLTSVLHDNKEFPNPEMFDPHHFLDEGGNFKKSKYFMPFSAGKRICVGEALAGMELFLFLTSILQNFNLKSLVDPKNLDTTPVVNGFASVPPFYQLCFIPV
Glucose-6-phosphate 1-dehydrogenase, sequence (P11413 whole entry): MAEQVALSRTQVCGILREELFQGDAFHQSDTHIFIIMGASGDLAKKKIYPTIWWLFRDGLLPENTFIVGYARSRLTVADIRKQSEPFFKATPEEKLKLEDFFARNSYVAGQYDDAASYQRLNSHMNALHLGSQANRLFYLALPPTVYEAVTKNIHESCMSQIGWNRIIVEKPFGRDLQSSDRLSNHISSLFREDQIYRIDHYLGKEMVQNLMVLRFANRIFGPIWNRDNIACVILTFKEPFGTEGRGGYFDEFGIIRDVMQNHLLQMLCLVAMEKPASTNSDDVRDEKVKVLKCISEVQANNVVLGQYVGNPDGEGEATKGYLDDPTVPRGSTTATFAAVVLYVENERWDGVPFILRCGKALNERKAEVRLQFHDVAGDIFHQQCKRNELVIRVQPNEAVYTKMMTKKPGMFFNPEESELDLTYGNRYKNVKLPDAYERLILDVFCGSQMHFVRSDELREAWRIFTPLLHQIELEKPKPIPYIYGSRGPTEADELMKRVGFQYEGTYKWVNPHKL
Ephrin type-A receptor 4, sequence (Q03137 whole entry): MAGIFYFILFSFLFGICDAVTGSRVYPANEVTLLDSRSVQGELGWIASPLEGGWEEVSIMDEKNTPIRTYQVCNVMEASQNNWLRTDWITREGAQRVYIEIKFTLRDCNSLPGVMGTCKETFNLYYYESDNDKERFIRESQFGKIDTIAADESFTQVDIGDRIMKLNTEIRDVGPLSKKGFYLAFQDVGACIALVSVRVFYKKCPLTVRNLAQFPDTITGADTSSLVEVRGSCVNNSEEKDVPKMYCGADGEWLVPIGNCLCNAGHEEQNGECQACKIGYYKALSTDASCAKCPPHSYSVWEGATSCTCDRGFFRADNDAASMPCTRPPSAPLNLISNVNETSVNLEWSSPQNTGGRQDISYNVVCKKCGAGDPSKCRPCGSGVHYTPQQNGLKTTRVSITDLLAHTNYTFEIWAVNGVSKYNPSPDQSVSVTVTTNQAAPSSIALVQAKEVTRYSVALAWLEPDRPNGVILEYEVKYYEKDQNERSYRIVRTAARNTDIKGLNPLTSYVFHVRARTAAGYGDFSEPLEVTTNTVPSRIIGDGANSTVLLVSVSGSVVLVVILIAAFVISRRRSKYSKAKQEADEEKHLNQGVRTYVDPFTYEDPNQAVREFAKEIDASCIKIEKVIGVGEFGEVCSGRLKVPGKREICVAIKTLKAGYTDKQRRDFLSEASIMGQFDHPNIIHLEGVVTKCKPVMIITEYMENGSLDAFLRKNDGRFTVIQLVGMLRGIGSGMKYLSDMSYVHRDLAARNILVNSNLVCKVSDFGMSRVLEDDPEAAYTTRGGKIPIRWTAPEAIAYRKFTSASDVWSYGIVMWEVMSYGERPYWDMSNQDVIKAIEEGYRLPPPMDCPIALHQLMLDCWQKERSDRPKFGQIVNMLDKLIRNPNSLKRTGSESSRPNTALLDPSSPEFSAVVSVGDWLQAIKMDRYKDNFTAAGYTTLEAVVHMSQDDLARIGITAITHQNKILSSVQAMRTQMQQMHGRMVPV
Beta Lactamase, sequence (Q932Y6 whole entry): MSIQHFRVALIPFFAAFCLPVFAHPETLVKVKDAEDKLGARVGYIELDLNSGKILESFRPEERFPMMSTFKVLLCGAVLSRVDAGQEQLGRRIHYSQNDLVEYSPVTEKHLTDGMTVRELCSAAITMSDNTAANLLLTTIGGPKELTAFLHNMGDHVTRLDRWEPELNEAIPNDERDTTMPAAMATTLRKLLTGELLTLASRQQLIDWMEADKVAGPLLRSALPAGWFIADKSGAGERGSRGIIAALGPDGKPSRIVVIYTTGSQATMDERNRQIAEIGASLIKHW

COc1cc(N2C(=O)C=CC2=O)ccc1N1C(=O)C=CC1=O
IC50 [1]: > 100 µM (active) | AC50 [2]: 12.5 µM (active) | IC50 (CHO): 1.59 µM (active) | AC50 [3]: 15.8 µM (active) | IC50 (Beta Lactamase): 11 µM (inactive) | IC50 [4]: 53.8 µM (active) | AC50 [5]: 2.32 µM (active) | IC50 [6]: 57.4 µM (inactive)

CCCNCC(O)COc1ccccc1C(=O)CCc1ccccc1 (stereo not given) [PROPAFENONE]
IC50 (cells [7]): > 33.3 µM (inactive) | IC50 [8]: > 10 µM (inactive) | IC50 [9]: > 10 µM (inactive) | IC50 [10]: 4.92 µM (active)

CCn1c(SCC(=O)NCc2ccc3c(c2)OCO3)nnc1-c1cccs1
IC50 [1]: > 100 µM (active) | IC50 [11]: > 64 µM (inactive)

CSc1ccc2c(c1)C(N1CCN(C)CC1)Cc1ccccc1S2 (stereo not given) [METITEPINE]
IC50 (cells [7]): > 33.3 µM (inactive) | IC50 [8]: > 10 µM (inactive) | IC50 [9]: > 10 µM (inactive) | IC50 [10]: 2.94 µM (active)

Sc1ncnc2c1cnn2Cc1ccccc1
AC50 [12]: 11.2 µM (active) | EC50 [13]: 3.56 µM (active) | EC50 [14]: > 150 µM (inactive)

CCCCCCOC(=O)C(C#N)c1nc2ccccc2nc1N1CCN(CC)CC1 (stereo not given)
AC50 (Cytochrome P450 2C9): 7.94 µM (inconclusive) | IC50 (Ephrin type-A receptor 4): > 100 µM (not active) | CC50 [15]: 24.7 µM (active) | IC50 (cells [16]): 13.6 µM (active) | AC50 (Cytochrome P450 2D6): 25.1 µM (inconclusive) | CC50 [17]: 19.7 µM (active)

COC(=O)C1CCCN1S(=O)(=O)c1ccc2ccccc2c1 (stereo not given)
AC50 (CAAX prenyl protease 2): 8.28 µM (active) | CC50 [18]: > 40 µM (active)

c1ccc(-c2nc3ccccn3c2NCc2ccc3c(c2)OCO3)cc1
EC50 [19]: > 50 µM (not active)
